Test results from US20230339937A1, “CONDENSED RING COMPOUNDS THAT INHIBIT H-PGDS” (SATO PHARMACEUTICAL CO., LTD., priority 2020, published 2023).

Biological target: T1, Recombinant human H-PGDS (Homo sapiens, UniProt O60760)
T1 construct: made in house; host or cells: E. coli
Experiment: H-PGDS inhibitory activity (prostaglandin D2 production from prostaglandin H2, measured by LC-MS/MS)
Format: biochemical
Settings: recombinant human H-PGDS 1.0 nM expressed in E. coli; prostaglandin H2 25 μM; preincubated 15 minutes on ice, reacted on ice for 1 minute; concentration that inhibits prostaglandin D2 production by 50%
In short: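 Recombinant human H-PGDS (E. coli-expressed, 1.0 nM final) preincubated with compound 15 min on ice in 20 mM Tris-HCl pH 8.0, 2 mM MgCl2, 2 mM GSH, 0.5 mg/mL γ-globulin. Reaction with 25 µM PGH2 run 1 min on ice, stopped with FeCl2/citric acid, PGD2 quantified by LC-MS/MS. Activity expressed as % of DMSO control after subtracting non-enzymatic PGD2.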

T1 sequence (O60760 whole entry): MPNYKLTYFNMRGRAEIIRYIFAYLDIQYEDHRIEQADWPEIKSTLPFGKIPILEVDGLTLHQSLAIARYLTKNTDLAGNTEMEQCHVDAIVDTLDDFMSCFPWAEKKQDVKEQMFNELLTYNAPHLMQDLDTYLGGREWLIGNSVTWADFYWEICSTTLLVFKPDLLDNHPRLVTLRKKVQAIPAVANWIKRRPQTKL

IC50 [nM] | Structure (SMILES)
4.7 | O=C(N[C@H]1CC[C@H](N2CCCCC2=O)CC1)c1ccc(-c2nccc3occc23)cc1 [Example 300, 4-(furo[3,2-c]pyridin-4-yl)-N-[trans-4-(2-oxopiperidin-1-yl)cyclohexyl]benzamide]
2 | Cc1cc2occc2c(-c2ccc(C(=O)N[C@H]3CC[C@H](C4(O)CC4)CC3)cc2)n1 [Example 334, N-[trans-4-(1-hydroxycyclopropyl)cyclohexyl]-4-(6-methylfuro[3,2-c]pyridin-4-yl)benzamide]
32 | CCOCCNC(=O)c1ccc(-c2nccc3occc23)cc1 [Example 80, N-(2-ethoxyethyl)-4-(furo[3,2-c]pyridin-4-yl)benzamide]
0.98 | CCOCCNC(=O)c1ccc(-c2nccc3[nH]ccc23)cc1 [Example 27, N-(2-ethoxyethyl)-4-(1H-pyrrolo[3,2-c]pyridin-4-yl)benzamide]
2.9 | CS(=O)(=O)c1ccc(NC(=O)c2ccc(-c3nccc4occc34)cc2)cc1 [Example 109, 4-(furo[3,2-c]pyridin-4-yl)-N-[4-(methylsulfonyl)phenyl]benzamide]
0.86 | Cn1nccc1CNC(=O)c1ccc(-c2nccc3[nH]ccc23)cc1 [Example 37, N-[(1-methyl-1H-pyrazol-5-yl)methyl]-4-(1H-pyrrolo[3,2-c]pyridin-4-yl)benzamide]
2.6 | O=C(N[C@H]1CC[C@H](O)CC1)c1ccc(-c2nccc3occc23)cc1 [Example 256, 4-(furo[3,2-c]pyridin-4-yl)-N-(trans-4-hydroxycyclohexyl)benzamide]
1.2 | O=C(NC1CCN(c2cnccn2)CC1)c1ccc(-c2nccc3occc23)cc1 [Example 145, 4-(furo[3,2-c]pyridin-4-yl)-N-[1-(pyrazin-2-yl)piperidin-4-yl]benzamide]
1.2 | O=C(N[C@H]1CCN(c2cccnn2)C1)c1ccc(-c2nccc3occc23)cc1 [Example 230, (S)-4-(furo[3,2-c]pyridin-4-yl)-N-[1-(pyridazin-3-yl)pyrrolidin-3-yl]benzamide]
1.5 | CC(O)CNC(=O)c1ccc(-c2nccc3[nH]ccc23)cc1 (centres unmarked) [Example 31, N-(2-hydroxypropyl)-4-(1H-pyrrolo[3,2-c]pyridin-4-yl)benzamide]
68 | O=C(NC(CO)c1ccccn1)c1ccc(-c2nccc3occc23)cc1 (centres unmarked) [Example 220, 4-(furo[3,2-c]pyridin-4-yl)-N-[2-hydroxy-1-(pyridin-2-yl)ethyl]benzamide]
3 | Cc1cc2occc2c(-c2ccc(C(=O)N[C@H]3CC[C@H](OCC(C)(C)O)CC3)cc2)n1 [Example 342, N-[trans-4-(2-hydroxy-2-methylpropoxy)cyclohexyl]-4-(6-methylfuro[3,2-c]pyridin-4-yl)benzamide]
4.3 | CC(=O)[C@@H]1CC[C@@H](NC(=O)c2ccc(-c3nccc4occc34)cc2)CO1 [Example 213, N-[(3R,6S)-6-acetyltetrahydro-2 H-pyran-3-yl]-4-(furo[3,2-c]pyridin-4-yl)benzamide]
5.5 | O=C(Nc1ccc(F)cc1)c1ccc(-c2nccc3occc23)cc1 [Example 111, N-(4-fluorophenyl)-4-(furo[3,2-c]pyridin-4-yl)benzamide]
1.6 | Cn1ccnc1CNC(=O)c1ccc(-c2nccc3[nH]ccc23)cc1 [Example 52, N-[(1-methyl-1H-imidazol-2-yl)methyl]-4-(1H-pyrrolo[3,2-c]pyridin-4-yl)benzamide]
50 | COCCNC(=O)c1ccc(-c2nccc3occc23)cc1 [Example 78, 4-(furo[3,2-c]pyridin-4-yl)-N-(2-methoxyethyl) benzamide]
1.5 | NC(=O)c1cnc(N2CC[C@H](NC(=O)c3ccc(-c4nccc5occc45)cc3)C2)nc1 [Example 202, (S)-2-(3-[4-(furo[3,2-c]pyridin-4-yl)benzamide]pyrrolidin-1-yl)pyrimidine-5-carboxamide]
0.97 | O=C(NC1CCN(c2nccc(=O)[nH]2)CC1)c1ccc(-c2nccc3occc23)cc1 [Example 179, 4-(furo[3,2-c]pyridin-4-yl)-N-[1-(6-oxo-1,6-dihydropyrimidin-2-yl)piperidin-4-yl]benzamide]
6.8 | Cc1coc2ccnc(-c3ccc(C(=O)N[C@H]4CC[C@H](C(C)(C)O)CC4)cc3)c12 [Example 130, N-[trans-4-(2-hydroxypropan-2-yl)cyclohexyl]-4-(3-methylfuro[3,2-c]pyridin-4-yl)benzamide]
1.4 | Cc1ccc(N2CCC(NC(=O)c3ccc(-c4nccc5occc45)cc3)CC2)nc1 [Example 151, 4-(furo[3,2-c]pyridin-4-yl)-N-[1-(5-methylpyridin-2-yl)piperidin-4-yl]benzamide]
1.8 | CO[C@H]1CCC[C@@H](NC(=O)c2ccc(-c3nccc4occc34)cc2)C1 (relative stereo) [Example 275, 4-(furo[3,2-c]pyridin-4-yl)-N-(cis-3-methoxycyclohexyl)benzamide]

IC50 [nM] | Structure (SMILES)
1.1 | O=C(Nc1ccccc1)c1ccc(-c2nccc3[nH]ccc23)cc1 [Example 16, N-phenyl-4-(1H-pyrrolo[3,2-c]pyridin-4-yl)benzamide]
1.1 | Cc1nn(C)cc1CNC(=O)c1ccc(-c2nccc3[nH]ccc23)cc1 [Example 39, N-[(1,3-dimethyl-1H-pyrazol-4-yl)methyl]-4-(1H-pyrrolo[3,2-c]pyridin-4-yl)benzamide]
4.4 | O=C(NC1CCN(c2nn[nH]n2)CC1)c1ccc(-c2nccc3occc23)cc1 [Example 248, N-[1-(1H-tetrazol-5-yl)piperidin-4-yl]-4-(furo[3,2-c]pyridin-4-yl)benzamide]
4 | CCOC(=O)c1cnc(N2CCC(NC(=O)c3ccc(-c4nccc5occc45)cc3)CC2)o1 [Example 254, ethyl 2-{4-[4-(furo[3,2-c]pyridin-4-yl)benzamide]piperidin-1-yl]oxazole-5-carboxylate]
0.63 | Cn1cncc1CNC(=O)c1ccc(-c2nccc3[nH]ccc23)cc1 [Example 41, N-[(1-methyl-1H-imidazol-5-yl)methyl]-4-(1H-pyrrolo[3,2-c]pyridin-4-yl)benzamide]
2 | C[C@]1(O)CC[C@H](NC(=O)c2ccc(-c3nccc4occc34)cc2)CC1 [Example 259, 4-(furo[3,2-c]pyridin-4-yl)-N-(trans-4-hydroxy-4-methylcyclohexyl)benzamide]
7.4 | Cn1ccc2c(-c3ccc(C(=O)N[C@H]4CC[C@H](C(C)(C)O)CC4)cc3)nccc21 [Example 4, N-[trans-4-(2-hydroxypropan-2-yl)cyclohexyl]-4-(1-methyl-1H-pyrrolo[3,2-c]pyridin-4-yl)benzamide]
1.5 | O=C(N[C@H]1CCN(c2ccnc(F)c2)C1)c1ccc(-c2nccc3occc23)cc1 [Example 196, (S)-N-[1-(2-fluoropyridin-4-yl)pyrrolidin-3-yl]-4-(furo[3,2-c]pyridin-4-yl)benzamide]
3 | O=C(NC1CCN(c2ncc(F)cn2)CC1)c1ccc(-c2nccc3occc23)cc1 [Example 157, N-[1-(5-fluoropyrimidin-2-yl)piperidin-4-yl]-4-(furo[3,2-c]pyridin-4-yl)benzamide]
1.2 | CCn1nnnc1N1CCC(NC(=O)c2ccc(-c3nccc4occc34)cc2)CC1 [Example 239, N-[1-(1-ethyl-1H-tetrazol-5-yl)piperidin-4-yl]-4-(furo[3,2-c]pyridin-4-yl)benzamide]
3.5 | O=C(N[C@H]1CC[C@@](O)(C(F)(F)F)CC1)c1ccc(-c2nccc3occc23)cc1 [Example 264, 4-(furo[3,2-c]pyridin-4-yl)-N-[trans-4-hydroxy-4-(trifluoromethyl)cyclohexyl]benzamide]
1.7 | O=C(NCc1ccncc1)c1ccc(-c2nccc3[nH]ccc23)cc1 [Example 11, N-(pyridin-4-ylmethyl)-4-(1H-pyrrolo[3,2-c]pyridin-4-yl)benzamide]
0.85 | O=C(NCC1CCOCC1)c1ccc(-c2nccc3[nH]ccc23)cc1 [Example 22, 4-(1H-pyrrolo[3,2-c]pyridin-4-yl)-N-[(tetrahydro-2H-pyran-4-yl)methyl] benzamide]
1.3 | CC(O)[C@H]1CC[C@H](NC(=O)c2ccc(-c3nccc4occc34)cc2)CC1 (stereo partly drawn) [Example 121, 4-(furo[3,2-c]pyridin-4-yl)-N-[trans-4-(1-hydroxyethyl)cyclohexyl]benzamide]
6.7 | O=C(N[C@@H]1CN(c2ncc(CO)cn2)C[C@H]1O)c1ccc(-c2nccc3occc23)cc1 [Example 207, 4-(furo[3,2-c]pyridin-4-yl)-N-((3R,4R)-4-hydroxy-1-[5-(hydroxymethyl)pyrimidin-2-yl]pyrrolidin-3-yl)benzamide]
251 | CC(C)(O)[C@H]1CC[C@H](NC(=O)c2ccc(-c3ncc(C#N)c4occc34)cc2)CC1 [Example 139, 4-(7-cyanofuro[3,2-c]pyridin-4-yl)-N-[trans-4-(2-hydroxypropan-2-yl)cyclohexyl]benzamide]
70 | CCc1cc2occc2c(-c2ccc(C(=O)N[C@H]3CC[C@H](C(C)(C)O)CC3)cc2)n1 [Example 314, 4-(6-ethylfuro[3,2-c]pyridin-4-yl)-N-[trans-4-(2-hydroxypropan-2-yl)cyclohexyl]benzamide]
6 | O=C(NCc1cccc(Cl)c1)c1ccc(-c2nccc3occc23)cc1 [Example 69, N-(3-chlorobenzyl)-4-(furo[3,2-c]pyridin-4-yl)benzamide]
1.2 | Cn1cc(CNC(=O)c2ccc(-c3nccc4[nH]ccc34)cc2)cn1 [Example 55, N-[(1-methyl-1H-pyrazol-4-yl)methyl]-4-(1H-pyrrolo[3,2-c]pyridin-4-yl)benzamide]
9 | O=C(NCc1ccccc1CO)c1ccc(-c2nccc3occc23)cc1 [Example 65, 4-(furo[3,2-c]pyridin-4-yl)-N-[2-(hydroxymethyl)benzyl]benzamide]
